The results in this text go back to US5162336A, “Tetrahydro-pyrido-indoles as cholecystokinin and gastrin antagonists” (Rhone-Poulenc Rorer Pharmaceuticals Inc., priority 1990, dated 1992).

This test deals with T1, Gastrin receptor (Cavia porcellus, UniProt H0VZC5).
T1 construct: The fundic mucosa is gently scraped off the submucosa; from tissue; host or cells: gastric glands from fundic mucosa of Hartley guinea pig
T1 sequence (H0VZC5 1-426): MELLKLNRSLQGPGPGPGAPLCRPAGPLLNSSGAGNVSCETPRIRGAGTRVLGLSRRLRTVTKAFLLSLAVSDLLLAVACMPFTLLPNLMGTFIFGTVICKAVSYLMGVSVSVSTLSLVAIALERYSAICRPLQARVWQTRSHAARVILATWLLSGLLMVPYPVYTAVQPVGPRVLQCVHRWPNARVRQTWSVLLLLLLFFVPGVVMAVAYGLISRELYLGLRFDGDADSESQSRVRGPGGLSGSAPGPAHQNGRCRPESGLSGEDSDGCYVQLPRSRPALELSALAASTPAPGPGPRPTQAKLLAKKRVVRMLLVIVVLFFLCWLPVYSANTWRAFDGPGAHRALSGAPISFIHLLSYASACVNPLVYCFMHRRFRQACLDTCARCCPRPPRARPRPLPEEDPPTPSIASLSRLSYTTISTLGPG
The experiment in a line: Gastrin receptor binding assay (displacement of 125I-(Leu-15)-Gastrin from guinea pig fundic glands). The arrangement: species or system guinea pig (Hartley Strain). The following applies: guinea pig fundic mucosa glands, 25° C., 30 min, read-out: In vitro Binding Data IC50 Gastrin. As to the method:
(a) Phosphate Buffered Saline (PBS): 8.743 g NaCl, 523 mg K2 HPO4 and 76.8 mg NaH2 PO4 is dissolved in 1.0 liter of deionized water and the pH of the solution is adjusted to 7.3 with 5N NaOH.
(b) Buffer A: While adding Basal Medium Eagle (BME) containing Earle's Salts, L-glutamine and 25 mM HEPES, 3 liters of deionized water is stirred, followed by the addition and dissolution of […] of sodium bicarbonate. The solution is then equilibrated with 95% O2 /5% CO2 gas followed by titration to a pH of 7.4 with NaOH.
(c) Buffer B: 18.75 mg of collagenase and […] of BSA is dissolved in 25 ml of Buffer A.
(d) Buffer C: 0.3 g of BSA is dissolved in 300 ml of Buffer A.
(e) 6.25 mg Bacitracin is dissolved in 25 ml of Buffer A.
(f) ^125 I-(Leu-15)-Gastrin: 100 microcurie dissolved in 2.0 ml of Buffer A to make 50 microcurie/ml.
(g) ^125 I-(15-methionine)-Human Gastrin: 50 microcurie/ml.
(h) (Leu 15)-Gastrin: 5.2 mg of (Leu-15)- Gastrin is dissolved in 10 ml of Buffer A. At the time of assay 1:10 dilution is made and 10 μl assay tube is used.
A guinea pig (Hartley Strain) weighing 150-200 grams, is sacrificed by CO2 asphyxiation and the stomach immediately excised, cut along the greater curvature, cleaned out and immediately immersed in a beaker containing cold PBS, pH 7.3, to insure thorough cleaning. The fundic mucosa is gently scraped off the submucosa and added to a preweighed 50 ml plastic centrifuge tube containing 30 ml of cold Buffer A. The weight of the plastic centrifuge tube containing the buffer is then subtracted from the combined weight of the mucosa and the buffer-containing tube to give the weight of the mucosa. The weight of the mucosa thus determined is recorded for later calculations.
The mucosa is then washed twice in Buffer A. After the final wash, the tissue is minced and is placed in a 100-ml glass beaker containing about 1.0 ml of Buffer A, and washed twice again by repeated centrifugation at 50×g for 5 minutes each and aspiration of supernatant. The washed tissue fragments are then added to a glass Erlenmeyer flask containing 25 ml of Buffer B and incubated in a Dubnoff shaking water bath at 37° C. for 30 minutes in a 95% O2 - 5% CO2 atmosphere. After the incubation, the digested tissue fragments in the Collegenase-buffer solution are triturated, filtered through a 200-micron nylon mesh and centrifuged at 50×g for 5 minutes. The supernatant is aspirated and discarded, the tissue washed 2× in Buffer C, resuspended in same buffer, incubated in a 37° C. water bath in an atmosphere of 95% O2 - 5% CO2 for 5 minutes, and centrifuged. The pelleted glands are suspended in Buffer D at a desired concentration of 2x10^5 glands/ml to use in the receptor binding assay.
Six minisorp tubes (16×100 mm) are serially marked and divided into two groups thus: tubes #1, #2, and #3 are marked "T" for "Totals" and tubes #4, #5, and #6 are marked "NS" for "Non-Specifics." Into each of the six tubes are added 220 μl of prepared glands in Buffer D; 20 μl of Buffer A in tubes #1, #2, and #3; 10 μl, in tubes #4, #5 and #6; (10μ of (Leu-15)-Gastrin (25 μM) in tubes #4, #5, and #6. The six tubes are then transferred immediately to a 25° C. water bath and challenged each with 10 μl ^125 I-(Leu-15)-Gastrin diluted as per calculation. The tubes are then covered with a gas hood connected to a 95% O2 - 5% CO2 gas source and mechanically agitated in a shaker for 30 minutes.
At the end of the incubation period, the assay mixtures are each filtered through a Whatman glass fiber filter B on a Brandel tissue harvester and washed twice with Buffer A. The filters are pre-soaked in Buffer C before use. The filter strips are removed after the final wash and individual filters counted in a Gamma Counter. The counts from the "Non-Specific" tubes are then averaged and subtracted from the average "Totals" to give the Specific Counts. […]
Background: Loss of bound radioactivity is the signal in a displacement assay; it reports binding, not function.
Consider `COc1cccc(NC(=O)N2Cc3[nH]c4ccccc4c3C[C@@H]2C(=O)N[C@@H](CC(C)C)C(=O)N[C@@H](CC(=O)O)C(N)=O)c1` [Example 61], for which the IC50 worked out at 6.4 µM.
To `CC(C)C[C@H](NC(=O)[C@H]1Cc2c([nH]c3ccccc23)CN1)C(=O)N[C@@H](CC(=O)OCc1ccccc1)C(N)=O` [Example 40] belongs 6 µM; to `CC(C)C[C@H](NC(=O)[C@H]1Cc2c([nH]c3ccccc23)CN1C(=O)Nc1ccc(Cl)c(Cl)c1)C(=O)N[C@@H](CC(=O)O)C(N)=O` [Example 66], 0.54 µM.
`Cc1cccc(NC(=O)N2Cc3[nH]c4ccccc4c3C[C@@H]2C(=O)NCC(=O)N[C@@H](CC(=O)O)C(N)=O)c1` [Example 56, N-[(3R)-2-(3-methylphenylcarbamoyl)-1,2,3,4-tetrahydro-9H-pyido[3,4-b]indole-3-carboxyl]glycyl-L-aspartic acid amide]: the IC50 was greater than 30 µM.
To `Cc1cccc(NC(=O)N2Cc3[nH]c4ccccc4c3C[C@@H]2C(=O)N[C@@H](CC(C)C)C(=O)N[C@@H](CC(N)=O)C(=O)O)c1` [Example 50] belongs 12 µM; to `NC(=O)[C@H](CC(=O)O)NC(=O)[C@H]1Cc2c([nH]c3ccccc23)CN1C(=O)c1ccccc1` [Example 8, N-[(3R)-2-benzoyl-1,2,3,4-tetrahydro-9H-pyrido[3,4-b]indole-3-carboxyl]-L-aspartic acid amide], 78 µM.
To `CC(C)C[C@H](NC(=O)[C@H]1Cc2c([nH]c3ccccc23)CN1C(=O)Nc1ccc(Cl)cc1)C(=O)N[C@@H](CC(=O)O)C(N)=O` [Example 55, N-[(3R)-2-(4-chlorophenylcarbamoyl)-1,2,3,4-tetrahydro-9H-pyrido[3,4-b]indole-3-carboxyl]-L-leucyl-L-asartic acid amide] belongs 3.3 µM; to `CCOC(=O)c1ccc(NC(=O)[C@H]2Cc3c([nH]c4ccccc34)CN2C(=O)Nc2cccc(C)c2)cc1` [Example 43], 30 µM.
To `O=C(NCC(c1ccccc1)c1ccccc1)[C@H]1Cc2c([nH]c3ccccc23)CN1` [Example 5, (3R)-3-(2,2'-diphenyl)ethylcarbamoyl-1,2,3,4-tetrahydro-9H-pyrido[3,4-b]indole] belongs 59 µM.
With `CC(C)C[C@H](NC(=O)[C@H]1Cc2c([nH]c3ccccc23)CN1C(=O)Nc1cccc(F)c1)C(=O)N[C@@H](CC(=O)O)C(N)=O` [Example 65], the IC50 was found to be 7.3 µM.
In the case of `Cc1cccc(NC(=O)N2Cc3[nH]c4ccccc4c3C[C@@H]2C(=O)N(C)[C@@H](CC(C)C)C(=O)N[C@@H](CC(=O)O)C(N)=O)c1` [Example 53, N-[(3R)-2-(3-methylphenylcarbamoyl)-1,2,3,4-tetrahydro-9H-pyrido[3,4-b]indole-3-carboxyl]N'-methyl-L-leucine-L-aspartic acid amide], the IC50 is 6 µM.
To `CC(C)C[C@H](NC(=O)[C@H]1Cc2c([nH]c3ccccc23)CN1C(=O)Nc1cccc2ccccc12)C(=O)N[C@@H](CC(=O)O)C(N)=O` [Example 67, N-[(3R)-2-(1-naphthylcarbamoyl)-1,2,3,4-tetrahydro-9H-pyrido[3,4-b]indole-3-carboxyl]-L-leucyl-L-aspartic acid amide] belongs 2 µM; to `O=C(NC(c1ccccc1)c1ccccc1)[C@H]1Cc2c([nH]c3ccccc23)CN1` [Example 6, (3R)-3-diphenylmethylcarbamoyl-1,2,3,4-tetrahydro-9H-pyrido[3,4-b]indole], 60 µM; to `NC(=O)[C@H](CC(=O)O)NC(=O)C1(NC(=O)[C@H]2Cc3c([nH]c4ccccc34)CN2C(=O)Nc2ccc(Cl)c(Cl)c2)CCCC1` [Example 26], 1.3 µM.
Turning to `Cc1cccc(NC(=O)N2Cc3[nH]c4ccccc4c3C[C@@H]2C(=O)N[C@@H](CC(C)C)C(=O)N[C@@H](Cc2ccccc2)C(N)=O)c1` [Example 42], the half-inhibitory concentration (IC50) was determined as 10 µM.
To `Cc1cccc(NC(=O)N2Cc3[nH]c4ccccc4c3C[C@H]2C(=O)N[C@H](CC(C)C)C(=O)N[C@@H](CC(=O)O)C(N)=O)c1` [Example 52] belongs greater than 30 µM; to `CCOC(=O)c1ccccc1NC(=O)[C@@H]1Cc2c([nH]c3ccccc23)CN1C(=O)OCc1ccccc1` [Example 23, ethyl 2-N-[(3S)-2-carbobenzoxy-1,2,3,4-tetrahydro-9H-pyrido[3,4-b]indole-3-carboxyl]aminobenzoate], greater than 300 µM; to `NC(=O)[C@H](CC(=O)O)NC(=O)[C@@H]1Cc2c([nH]c3ccccc23)CN1` [Example 4, N-[(3S)-1,2,3,4-tetrahydro-9H-pyrido[3,4-b]indole-3-carboxyl]-L-aspartic amide], greater than 300 µM.
In the case of `CC(C)C[C@H](NC(=O)[C@H]1Cc2c([nH]c3ccccc23)CN1C(=O)Nc1ccc(Cl)c(Cl)c1)C(=O)NCC(N)=O` [Example 28] it was 0.91 µM.
To `CC(C)C[C@H](NC(=O)[C@H]1Cc2c([nH]c3ccccc23)CN1)C(=O)N[C@@H](CC(=O)O)C(N)=O` [Example 1, N-[(3R)-1,2,3,4-tetrahydro-9H-pyrido[3,4-b]indole-3-carboxyl]-L-leucyl-L-aspartic acid amide] belongs 12 µM; to `Cc1cccc(C(=O)N2Cc3[nH]c4ccccc4c3C[C@@H]2C(=O)N[C@@H](CC(C)C)C(=O)N[C@@H](CC(=O)O)C(N)=O)c1` [Example 54], 6.8 µM; to `Cc1cc(C)cc(NC(=O)N2Cc3[nH]c4ccccc4c3C[C@@H]2C(=O)N[C@@H](CC(C)C)C(=O)N[C@@H](CC(=O)O)C(N)=O)c1` [Example 60, N-[(3R)-2-(3,5-dimethylphenylcarbamoyl)-1,2,3,4-tetrahydro-9H-pyrido[3,4-b]indole-3-carboxyl]-L-leucyl-L-aspartic acid amide], 15 µM.
In the case of `CC(C)C[C@H](NC(=O)[C@H]1Cc2c([nH]c3ccccc23)CN1C(=O)Nc1ccc2ccccc2c1)C(=O)N[C@@H](CC(=O)O)C(N)=O` [Example 62], the IC50 was 1.2 µM.
In the case of `Cc1cccc(NC(=O)N2Cc3[nH]c4ccccc4c3C[C@H]2C(=O)N[C@H](CC(C)C)C(=O)N[C@H](CC(=O)O)C(N)=O)c1` [Example 49] it was 0.9 µM; in that of `Cc1cccc(NC(=O)N2Cc3[nH]c4ccccc4c3C[C@@H]2C(=O)N[C@@H](CC(C)C)C(=O)N[C@H](CC(=O)O)C(N)=O)c1` [Example 51, N-[(3R)-2-(3-methylphenylcarbamoyl)-1,2,3,4-tetrahydro-9H-pyrido[3,4-b]indole-3-carboxyl]-L-leucyl-D-aspartic acid amide], 17 µM.
For `Cc1cccc(NC(=O)N2Cc3[nH]c4ccccc4c3C[C@@H]2C(=O)N[C@@H](CC(C)C)C(N)=O)c1` [Example 39, N-[(3R)-2-(3-methylphenylcarbamoyl)-1,2,3,4-tetrahydro-9H-pyrido[3,4-b]indole-3-carboxy]-L-leucinamide], the IC50 is 0.23 µM.

One may read the IC50 as the point on the concentration scale where inhibition reaches its midpoint.
